Measured values reported in US4051244A, “2,4-Diamino 5-bromo 6-chloro pyrimidines, process for their preparation and use as pharmaceuticals” (Mar-Pha Societe d'Etudes et d'Exploitation de Marques, priority 1975, dated 1977).

Tests used:
[1] = tested on: bronchospasms induced by serotonine; experiment: Bronchospasms using serotonine in guinea pigs, intravenous; type: in vivo, Albinos Hartley guinea-pigs; conditions: Cavia porcellus, i.v., anesthesized guinea-pigs, read-out: DE 50, dose reducing by 50% the amplitude of bronchospasms using serotonine in guinea pigs
Excerpt: (§1) The anti-serotonine properties of the compounds according to the invention are shown in vitro and in vivo.
In vivo, the products are applied by intra-venous way to anesthesized Albinos Hartley guinea-pigs. A method originated from Konzett, H. and Rossler, R. is employed (Naunyn. Schmiedeberg's Arch. exp. Path. Pharmakol, 195, 71, 1940). The results, shown in the table hereunder, are expressed by a DE 50 which represents the dose capable of reducing by 50% the amplitude of bronchospasms induced by the administration of serotonine.

[2] = LD 50 in the mouse, oral (cumulative method of Reed and Muench); conditions: in vivo
Procedure: (§2) The toxicities of the products according to the invention have been determined on the mouse CD 1 (Charles River) by intravenous and oral methods. The lethal doses 50% (LD 50) are calculated by the cumulative method of Reed J. J. and Muench, H. (Am. J. Hyg. 27, 493, 1938).

[3] = LD 50 in the mouse, intravenous (cumulative method of Reed and Muench); conditions: in vivo
Procedure: as §2

[4] = tested on: vomitings induced by apomorphine; experiment: Anti-emetic test: vomitings induced by apomorphine in the dog, oral; type: in vivo; conditions: mongrel dog; for ED50: Canis lupus familiaris, read-out: DE 50, dose diminishing by 50% the number of vomitings induced by apomorphine
Excerpt: The anti-emetic properties of the compounds according to the invention are shown by oral way in the mongrel dog in tests in which vomitings are induced by apomorphine according to Chen, G. and Ensor, C. (J. Pharmacol exp. Ther. 98, 24, 1950).
The results are expressed by a DE 50 which represents the dose of product capable of diminishing by 50% the number of vomitings induced by the agent.

[5] = tested on: isolated duodenum, spasms induced by barium chloride; experiment: Spasms of the isolated duodenum of a rat induced by barium chloride (musculotropic)
Excerpt: (§3) The anti-spasmodic properties of the compounds according to the invention are shown by use of the technique of Magnus, R. (Ges. Physiol. 102, 123, 1904) in connection with the spasms of the isolated duodenum of a rat caused by either acetylcholine to research an effect of neurotropic type or by barium chloride to research an effect of musculotropic type.
(§4) The results, shown hereunder, are expressed by a CE 50 which represents the concentration of product in mg/1 capable of decreasing by 50% the amplitude of spasms thus induced.

[6] = tested on: ulcer induced by reserpine; experiment: Protection against the ulcer induced by reserpine in a rat, acute oral; type: in vivo, rat CD (Charles River); conditions: for antiulcer properties (in words): p.o., reserpine and constraint ulcer; for ED50: po, read-out: DA 50, dose protecting 50% of the animals against the ulcer induced by reserpine in a rat
Excerpt: (§5) The anti-ulcer properties of the products according to the invention are shown in the rat CD (Charles River) by acute oral administration using two techniques.
The first technique studies the activity of the product in connection with the experimental ulcer induced by […] according to Brodie, D. A. (Gastroenterology, 43, 675, 1962). The result is expressed by a DA 50 which represents the dose in mg/kg capable of protecting 50% of the animals against the least trace of ulceration of the mucous gastric system.

[7] = tested on: isolated uterus, spasms induced by serotonine; experiment: Spasms of isolated uterus of rat induced by serotonine; design: species or system rat CD (Charles River); conditions: for CE 50, spasms of isolated uterus of rat induced by serotonine: in vitro
Excerpt: as §1
In vitro, the action of the products on the spasms induced by the serotonine in the isolated uterus of a rat (rat CD Charles River) is shown, according to the technique of Fanchamps, A., Doepfner, W., Weidman, H. and Cerletti, (A. Schw. Med. Worsch. 90, 1040, 1960). The results, shown in the table hereunder, are expressed by a CE 50 which represents the concentration in mg/1 of the product capable of decreasing by 50% the amplitude of spasms induced by the serotonine.

[8] = tested on: isolated duodenum, spasms induced by acetylcholine; experiment: Spasms of the isolated duodenum of a rat induced by acetylcholine (neurotropic); conditions: for spasmolytic effects, both musculotropic and neurotropic (in words): acetylcholine and barium chloride
Excerpt: as §3, §4

[9] = tested on: cerebral phosphodiesterases; experiment: Inhibition of the phosphodiesterases of the brain; type: biochemical, rat CD (Charles River)
Excerpt: The phosphodiesterasic activity is shown by the method of Kukovetz E. R. and Poech, G. (Arch. Pharmakol. 1970, 267, 189) by utilizing the supernatant part obtained after centrifugation at 10,000 G of the brain of male rats CD (Charles River).
The inhibiting action of the compounds according to the invention on the cerebral phosphodiesterases has been tested and expressed by an inhibiting concentration 50% (CI 50) in micromoles.

constraint ulcer = experiment: Protection against constraint ulcer, acute oral; type: in vivo, rat CD (Charles River); conditions: p.o., rat, 24 hours constraint, read-out: DE 50, dose decreasing by 50% the ulcerating effect (constraint ulcer)
Excerpt: as §5
The second studies the activity of the product in connection with the constraint ulcer according to Rossi, G., Bonfils, S., Leifooche, G. and Lambling A. (C.R. Soc. Biol. 150, 2124, 1956). The result is expressed by a DE 50 which represents the dose of the substance in mg/kg capable of decreasing by 50% the ulcerating effect caused by the 24 hours constraint.

Structure (SMILES)	ED50 [1]	LD50 [2]	LD50 [3]	ED50 [4]	CE 50, concentration decreasing by 50% the amplitude of spasms induced by barium chloride [5]	antiulcer properties (in words) [6]	ED50 [6]	CE 50, spasms of isolated uterus of rat induced by serotonine [7]	CE 50, concentration decreasing by 50% the amplitude of spasms induced by acetyl-choline [8]	inhibiting action on the cerebral phosphodiesterases (in words) ([9]; rat brain supernatant)	IC50 ([9]; supernatant of brain of male rats, 10,000 G, read-out: CI 50, inhibiting concentration 50% on the cerebral phosphodiesterases)	ED50 (constraint ulcer)	anti-serotonine activity (in words) ([7]; in vitro (rat uterus) and in vivo (guinea pig))	spasmolytic effects, both musculotropic and neurotropic (in words) [8]	anti-emetic activity (in words) ([4]; apomorphine)
CNc1nc(Cl)c(Br)c(N2CCN(C)CC2)n1 [Example 1, 2-methylamino-4-(N-methylpiperazinyl) 5-bromo 6-chloro pyrimidine]	0.08 mg/kg	100 mg/kg	55 mg/kg	1 mg/kg	–	–	–	–	–	–	–	–	–	–	–
CC(C)Nc1nc(N2CCN(C)CC2)nc(Cl)c1Br [Example 2, 2-(N-methylpiperazinyl) 4,isopropylamino 5-bromo 6-chloro pyrimidine]	0.45 mg/kg	675 mg/kg	83 mg/kg	> 5 mg/kg	3 mg/L	outstanding antiulcer properties	100 mg/kg	0.07 mg/L	5.5 mg/L	interesting inhibiting action	40 µM	–	–	–	–
CC(C)Nc1nc(Cl)c(Br)c(N2CCN(C)CC2)n1 [Example 3]	0.85 mg/kg	200 mg/kg	86 mg/kg	1.4 mg/kg	0.6 mg/L	outstanding antiulcer properties	20 mg/kg	0.004 mg/L	1.8 mg/L	–	–	12 mg/kg	very high anti-serotonine activity	very interesting	very important anti-emetic activity
CCCCCCCNc1nc(Cl)c(Br)c(N2CCN(C)CC2)n1 [Example 4]	–	> 900 mg/kg	–	–	1.3 mg/L	–	> 100 mg/kg	0.35 mg/L	1.4 mg/L	–	–	–	–	very interesting	–
CN1CCN(c2nc(N)nc(Cl)c2Br)CC1 [Example 6]	–	600 mg/kg	48 mg/kg	–	0.2 mg/L	–	> 100 mg/kg	0.05 mg/L	4 mg/L	–	–	–	–	very interesting	–
Cc1ccc(N(C)c2nc(Cl)c(Br)c(N3CCN(C)CC3)n2)cc1 [Example 7]	–	> 900 mg/kg	83 mg/kg	–	0.6 mg/L	–	> 100 mg/kg	0.05 mg/L	1.4 mg/L	–	–	–	–	very interesting	–
Cc1ccc(N(C)c2nc(Cl)c(Br)c(NCCN(C(C)C)C(C)C)n2)cc1 [Example 9]	–	675 mg/kg	–	–	–	–	300 mg/kg	0.33 mg/L	–	–	–	–	–	–	–
